Where “and” joins values, the source holds several entries; their conditions need not be identical. Equal values may be shown once.
Columns and labels:
Assay in all cases: Test G paddy mixture test (Colby)
Conditions in all cases: applied alone, 20 g a.i./ha; 14 d; scale 0-100
[1] = system: small-flower umbrella sedge (CYPDI); type: in vivo, Cyperus difformis
Protocol: (§1) Seeds of small-flower umbrella […], Cyperus difformis) and […], Heteranthera limosa) were sown on the soil surface in two separate quadrants of 11-cm (4-inch) tubs filled with steam pasteurized Tama soil. Simultaneously, plantings of […], Echinochloa crus-galli) and transplanted japonica rice (ORYSA, Oryza sativa) were established in separate “plug” flats. […] Herbicide application timing was targeted at the 2.0 to 2.5 leaf stage and the plants were treated with test chemicals formulated in a non-phytotoxic solvent. Treated plants and controls were maintained in a greenhouse for 14 d, after which time all species were compared to controls and visually evaluated. Plant response ratings are summarized in Tables G1 through G12, and are based on a scale of 0 to 100 where 0 is no effect and 100 is complete control. A dash (-) response means no test result. Colby's Equation was used to determine the herbicidal effects expected from the mixtures. Colby's Equation (Colby, S. R. “Calculating Synergistic and Antagonistic Responses of Herbicide Combinations,” Weeds, 15(1), pp 20-22 (1967)) calculates the expected additive effect of herbicidal mixtures and for two active ingredients is of the form: Pa+b=Pa+Pb-(PaPb/100) where • Pa+b is the percentage effect of the mixture expected from additive contribution of the individual components: • Pa is the observed percentage effect of the first active ingredient at the same use rate as in the mixture, and • Pb is the observed percentage effect of the second active ingredient at the same use rate as in the mixture. In the following Tables, rates are shown in grams of active ingredient per […]); “Obsd.” is the observed effect. “Exp.” is the expected effect calculated from Colby's Equation.

ducksalad (HETLI) = type: in vivo, Heteranthera limosa
Protocol: as §1

barnyardgrass (ECHCG) = type: in vivo, Echinochloa crus-galli
Protocol: as §1

[2] = system: transplanted japonica rice (ORYSA); type: in vivo, Oryza sativa
Protocol: as §1

SMILES | CYPDI Obsd. [1] | HETLI Obsd. (ducksalad (HETLI)) | ECHCG Obsd. (barnyardgrass (ECHCG)) | ORYSA Obsd. [2]
COc1nc(OC)nc(C(=O)c2cccc(F)c2N(C)S(=O)(=O)C(F)F)n1 [Triafamone, N-[2-[(4,6-dimethoxy-1,3,5-triazin-2-yl)carbonyl]-6-fluorophenyl]-1,1-difluoro-N-methylmethanesulfonamide] | 0 | 0 | 90 and 85 | 0
COCc1cccc(C(O)c2nc(OC)cc(OC)n2)c1NS(=O)(=O)C(F)F (centres unmarked) [Pyrimisulfan] | 98 and 100 | 100 | 75 and 80 | 25 and 20
